The values below come from PMC3236098 (Bioorganic & medicinal chemistry, 2011).

The test system of assay [1] is mTAAR1. To be noted: read-out: EC50 Mouse TAAR1; cited from earlier work.
Assay [2] has as its system rTAAR1. The settings on record: read-out: EC50 Rat TAAR1; cited from earlier work.
For assay [3], the system named is DAT. To be noted: read-out: EC50 in rat synaptosomes; reference not given; cited from earlier work.
The conditions of assay [4]: cited from earlier work; for excitation in humans: doses of 100 mg (or greater).
The target of assay [5] is T1, hTAAR1 (Homo sapiens, UniProt Q96RJ0).
T1 sequence (Q96RJ0 1-339): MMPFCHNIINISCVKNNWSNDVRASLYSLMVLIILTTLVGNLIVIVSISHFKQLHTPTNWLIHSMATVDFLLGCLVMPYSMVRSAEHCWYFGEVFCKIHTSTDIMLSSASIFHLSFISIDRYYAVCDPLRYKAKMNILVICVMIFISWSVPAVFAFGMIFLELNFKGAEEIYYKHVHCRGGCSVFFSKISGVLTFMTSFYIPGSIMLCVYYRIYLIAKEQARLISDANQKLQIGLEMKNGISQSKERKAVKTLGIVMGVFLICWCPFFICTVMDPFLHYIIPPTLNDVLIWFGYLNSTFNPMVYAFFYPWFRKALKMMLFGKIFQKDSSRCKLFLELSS
In kind it is cell-based.

For orientation: EC50 means the concentration needed to bring the measured effect to its halfway point.

The structures appear in SMILES notation.

With `C[C@@H](N)Cc1ccccc1` [(R)-1, (R)-amphetamine], the EC50 was 65 ± 53 nM in assay [1] and 1400 ± 600 nM in assay [2].

For `C[C@H](N)Cc1ccccc1` [(S)-1, (S)-amphetamine], the EC50 in assay [1] was 2 ± 1 nM; in assay [2], 1200 ± 70 nM; in assay [3], […].

On to `C[C@H](N)Cc1ccc2c(c1)OCO2` [(S)-3, (S)-3,4-methylenedioxyamphetamine], for which, in assay [4], the excitation in humans entry is reported as “excitation”.

On to `CN[C@@H](C)Cc1ccc2c(c1)OCO2` [(S)-4, (S)-3,4-methylenedioxymethamphetamine], for which the excitation in humans entry in assay [4] was “excitation”.

`C[C@H](N)Cc1cccc(C(F)(F)F)c1` [(S)-6, (S)-norfenfluramine]: in assay [5], the “EC50 Human, potency to activate TAAR1” value is “active ^*”.

Consider `COc1cc(C[C@H](C)N)c(OC)cc1Br` [(S)-7, (S)-4-bromo-2,5-dimethoxyamphetamine], for which, in assay [4] (doses of 0.5–1.0 mg), the effect in humans result is “no effect”.

For the compound `COc1cc(C[C@H](C)N)c(OC)cc1C` [(S)-8, (S)-4-methyl-2,5-dimethoxyamphetamine], the “agonist activity at hTAAR1 (in words)” value in assay [5] was “lack of observed agonist activity”.
